Results taken from US20240123013A1, “SUPPLEMENT FOR ARTHRITIS AND PSORIASIS” (priority 2021, published 2024).

Assay: Comparison of arthritis gel compositions formulated with different crystalline CBDs (Example 12)
Details: gels differ only in the crystalline CBD used
Procedure: Two hydroalcoholic arthritis gel compositions are prepared according to Example 2, the only difference being that the crystalline CBD used in the formulation is either of type A (needle-like crystals; FIG. 1) or type B (bunch/cluster-like; FIG. 2).

## C=C(C)[C@@H]1CCC(C)=C[C@H]1c1c(O)cc(CCCCC)cc1O [type A CBD, cannabidiol]
  Activity of CBD in hydroalcoholic arthritis gel, crystal type A versus type B: significantly more active than type B CBD
Listed as crystal structure A
  Activity of CBD in hydroalcoholic arthritis gel, crystal type A versus type B: significantly more potent
